One assay concerns the target Aurora kinase B-A (Xenopus laevis, UniProt Q6DE08). Kind of assay: Inhibition of Xenopus laevis Aurora kinase B/INCEP complex using gamma-[32P]ATP incubated for 1 hr by autoradiography.
The next assay has as its target Aurora kinase B (Homo sapiens, UniProt Q96GD4). Kind of assay: Inhibition of human Aurora kinase B/INCEP complex expressed in Escherichia coli BL21 (DE3) using gamma-[32P]ATP incubated for 1 hr by autoradiography.
The next assay addresses T1, Aurora kinase A (Homo sapiens, UniProt O14965).
T1 sequence (O14965 whole entry): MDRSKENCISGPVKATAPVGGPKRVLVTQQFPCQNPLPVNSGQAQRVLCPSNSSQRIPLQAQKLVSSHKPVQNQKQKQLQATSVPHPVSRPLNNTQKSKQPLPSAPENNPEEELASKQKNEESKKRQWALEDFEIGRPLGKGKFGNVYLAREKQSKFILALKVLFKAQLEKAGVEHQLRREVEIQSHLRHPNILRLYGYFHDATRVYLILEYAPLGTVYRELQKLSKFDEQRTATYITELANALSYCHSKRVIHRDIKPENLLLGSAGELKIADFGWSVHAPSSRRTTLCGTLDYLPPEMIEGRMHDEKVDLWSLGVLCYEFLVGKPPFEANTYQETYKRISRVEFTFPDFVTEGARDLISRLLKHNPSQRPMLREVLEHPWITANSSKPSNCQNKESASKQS

Chain of Aurora kinase B-A (Q6DE08 whole entry): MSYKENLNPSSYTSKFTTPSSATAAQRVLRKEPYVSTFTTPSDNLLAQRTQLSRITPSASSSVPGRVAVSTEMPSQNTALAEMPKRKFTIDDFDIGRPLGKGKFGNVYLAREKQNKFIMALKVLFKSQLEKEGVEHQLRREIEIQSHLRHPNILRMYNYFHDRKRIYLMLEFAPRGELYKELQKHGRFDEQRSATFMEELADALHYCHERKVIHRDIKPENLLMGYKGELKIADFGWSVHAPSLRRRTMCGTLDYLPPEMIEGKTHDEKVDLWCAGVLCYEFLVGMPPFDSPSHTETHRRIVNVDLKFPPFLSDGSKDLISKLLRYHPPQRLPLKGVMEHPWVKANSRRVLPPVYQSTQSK
Chain of Aurora kinase B (Q96GD4 whole entry): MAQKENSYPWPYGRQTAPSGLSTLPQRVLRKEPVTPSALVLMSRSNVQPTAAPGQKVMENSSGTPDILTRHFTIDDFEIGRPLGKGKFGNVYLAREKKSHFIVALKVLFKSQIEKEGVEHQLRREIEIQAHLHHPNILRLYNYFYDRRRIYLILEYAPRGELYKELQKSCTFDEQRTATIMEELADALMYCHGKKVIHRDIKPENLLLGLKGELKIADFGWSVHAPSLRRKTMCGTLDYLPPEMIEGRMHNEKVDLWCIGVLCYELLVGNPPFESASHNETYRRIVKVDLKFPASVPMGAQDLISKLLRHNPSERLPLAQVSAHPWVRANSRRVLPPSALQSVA
Description for Aurora kinase A: Inhibition of human Aurora kinase A/TPX2 complex using gamma-[32P]ATP incubated for 1 hr by autoradiography

`COc1cc2c(Nc3ccc(NC(=O)c4ccccc4)cc3)ncnc2cc1OCCCN1CCOCC1` showed an IC50 against Aurora kinase B-A of 0.045 µM. This counts as double-digit nanomolar.
In the case of `CCS(=O)(=O)Nc1ccc2c(c1)/C(=C(/Nc1ccc(CN3CCCCC3)cc1)c1ccccc1)C(=O)N2` [HESPERADIN], the figures for the 50% inhibitory concentration (IC50) at Aurora kinase B-A, at Aurora kinase B and at Aurora kinase A were 0.003 µM, 0.003 µM and 0.011 µM, respectively.
On Aurora kinase B-A, `Cc1cc(Nc2cc(N3CCN(C)CC3)nc(Sc3ccc(NC(=O)C4CC4)cc3)n2)[nH]n1` [TOZASERTIB] yielded an IC50 of 0.019 µM.

In general, IC50 refers to the concentration at which inhibition is half-maximal. Lower therefore signals greater potency in that assay.

For the origin of these results see ChEMBL document CHEMBL2176926, “Crystal structure of human aurora B in complex with INCENP and VX-680” (J Med Chem, 2012).
